The text below walks through data of paper PMC7915858, “Complementary Effects of Carbamylated and Citrullinated LL37 in Autoimmunity and Inflammation in Systemic Lupus Erythematosus” (International Journal of Molecular Sciences, 2021).

The target in one experiment is HLA-DR1 (DRB1*0101) (Homo sapiens, UniProt P01903+P01911, /P40L/Q125E/R42F/V115G/Y59C). The experiment in a line: Peptide-MHC class II binding (HLA-DR folding assay, LOCI/AlphaScreen). To be noted: peptide titrated, 48 h at 18 °C, LOCI, two experiments, KD values only in picture (Table S2). The method, then: (§1) Peptide-MHC-binding assays was performed by ImmunAware (Horsholm, Denmark). Binding was measured using a Luminescent Oxygen Channeling Immunoassay (LOCI), marketed by Perkin Elmer (Hopkinton, MA, USA) as AlphaScreen. This is a nonradioactive bead-based homogenous proximity assay, where the donor beads containing a photosensitizer compound, upon excitation with light at a 680 nm wavelength, converts ambient oxygen to energy-rich, short-lived singlet oxygen; this latter is transferred to acceptor beads, in close proximity only. The acceptor beads can respond to a single oxygen with a luminescence/fluorescence cascade, leading to an amplified signal in the 520–620 nm range. There is a tag binding to the donor beads: a biotin group engineered into the HLA β chain.
(§2) The acceptor beads are linked instead to a conformation-dependent HLA class II specific antibody (L243). Thus, only when a peptide binds well the HLA class II molecule, a corrected folded HLA class II molecule is formed and can be recognized by the L243 antibody. Biotinylated recombinant HLA class II molecules were diluted from an 8 M urea buffer into a folding buffer (PBS, 20% glycerol, Protease inhibitor mix). Different peptide concentrations, between 0.13 nM and 10,000 nM, were added into the assay. The tested peptides were titrated in 5-to-8 five-fold concentration, […]. The reaction mixtures were incubated for 48 h at 18 °C to allow peptide-HLA-complex formation to reach a steady state. After incubation, 15 μL of the folding mixture was transferred to a 384-well Optiplate (Perkin Elmer), followed by addition of 15 μL of a solution containing L243 acceptor beads and streptavidin donor beads (final concentration of beads was 5 μL/mL). The plates were incubated over night at 18 °C and then measured in enVisionTM, Perkin Elmer. Assay signals measured in OD450 were plotted against the offered peptide concentrations and analyzed by non-linear regression using GraphPad Prism. The peptide concentration resulting in half saturation, the half maximal effective concentration (EC50), was estimated by fitting the experimental data to the equation: Y = Bmax*X/(KD + X), where Y is the OD450 measurement of complexes formed and X is the concentration of ligand (peptide) offered. The EC50 approximates the KD as long as the receptor concentration used is less than the KD, thus avoiding ligand depletion.

In the next experiment the target is HLA-DR15 (DRB1*1501) (Homo sapiens, UniProt P01903+P01911). The description is as above. As to conditions: peptide titrated, 48 h at 18 °C, LOCI, two experiments, KD values only in picture (Table S2). As for the experimental part: as §1, §2
A further experiment has as its system pDCs. To be noted: LL37 citrullinated at all five arginines; cited from earlier work. An excerpt:
LL37 is able to activate innate immune cells and B-cells after forming complexes with nucleic acids in a special molecular conformation, suitable for TLR stimulation. PDCs, as well as B-cells, are both activated by LL37-DNA or LL37-RNA complexes.

On to “L*LGDFFRK*SK*EK*IGKEFK*RIVQRIK*DFLRNLVPRTES [carb-LL37]”, for which the results for the “Binding to HLA-DRB1*0101 compared to cit-LL37” value at HLA-DR1 (DRB1*0101) and at HLA-DR1 (DRB1*0101) (listed as Carb-LL37) were “equivalent to the binding efficiency of cit-LL37” and “binds HLA-DR alleles similarly to cit-LL37”, respectively. For the same substance, the results for the “Binding to HLA-DRB1*1501 compared to cit-LL37” value on HLA-DR15 (DRB1*1501) and on HLA-DR15 (DRB1*1501) (listed as Carb-LL37) were “equivalent to the binding efficiency of cit-LL37” and “binds HLA-DR alleles similarly to cit-LL37”, respectively.

For the substance “LLGDFFR(cit)KSKEKIGKEFKR(cit)IVQR(cit)IKDFLR(cit)NLVPR(cit)TES [cit-LL37, LL37 citrullinated at all five arginine sites]”, the “Ability to transform cell-free DNA into an inducer of IFN-I by human pDCs” value with pDCs is given as “loose ability to transforms the “cell-free” DNA into an inducer of IFN-I by human pDCs”.
